The values that follow come from PMC3545992, “Trisubstituted Pyrazolopyrimidines as Novel Angiogenesis Inhibitors” (PLoS ONE, 2013).

Like-named read-outs stand apart in the source and are kept apart here.

In one data set the test system is HMEC-1 cells. Nature of the data set: Crystal violet proliferation assay. The class given is cell-based, human. Particulars: HMEC-1, 72 h, read-out: IC50 endothelial cell proliferation. As for the experimental part: HMEC-1 cells were seeded to a density of 1,500 cells/well. After 24 h of incubation, a zero point control was stained with crystal violet. The remaining cells were left untreated as positive control or treated with 0.3-1-3-10–30 µM of the indicated compounds. After 72 h additional incubation, relative proliferation was determined by crystal violet staining and quantified as absorption at 550 nm.
HMEC-1 were seeded into 96-well-plates (1,500 cells/well). After 24 h, the cells were stimulated with the indicated compounds. At the same time point, cells in a reference plate were stained with crystal violet, serving as initial cell number. After 72 hours of stimulation, cells were fixed and stained with crystal-violet solution for 10 minutes, washed with water, and air dried. Crystal violet was eluted with dissolving buffer and absorbance was measured at 550 nm (Tecan Sunrise Absorbance reader, TECAN, Crailsheim, Germany). In a parallel series of experiments, cells seeded at the same cell density as in the proliferation assays were treated with 30 µM of the respective compound for 72 h. Afterwards, 10 µg/ml propidium iodide was added for 30 min to counterstain cells for membrane integrity. Phase contrast and fluorescence images were obtained with an inverted Nikon microscope (Ti, Nikon, Düsseldorf, Germany) equipped with a 10x objective.

Data set [1] has as its system HUVECs. The experiment in a line: Scratch assay (migration assay). It is filed as cell-based, human. As for the experimental part: A: HMEC-1 cells were seeded in the same density as for the proliferation assay and treated with the respective compound at 30 µM for 72 h to test whether reduced cell numbers in the proliferation assay are due to inhibition of proliferation or to excessive cell death. No increase of detached, obviously dead or propidium iodide positive cells was detected. B and C: Confluent layers of HUVECs were scratched and the cells were allowed to migrate for 16 h in the presence or absence of 10 µM of the compounds. B: The columns indicate the area re-covered by migrating cells (n = 3, mean ± SEM, * p<0.05, One Way ANOVA, Dunnett). C: Scratches at endpoint, representative images taken out of three experiments.
HUVECs were seeded into a 24-well plate. After reaching confluency, cells were scratched using a 100 µl pipette tip. The wounded monolayers were washed twice with PBS containing Ca^2+/Mg^2+; then growth medium containing the indicated concentration of the compounds was added. After 16 h of migration, cells were washed and subsequently fixed with 4% paraformaldehyde. […] Images were taken using the TILLvisON system (TILL Photonics GmbH, Gräfelfing, Germany) and a CCD-camera connected to an Axiovert 200 microscope (Zeiss, Oberkochen, Germany). Quantitative image analysis of the cell covered area was done by Wimasis GmbH, Munich. A completely closed scratch was set as 100% migration, the area of the original open scratch was set as 0% migration.

For data set [2], the system named is HUVECs. The experiment in a line: Cell viability assay (CellTiter-Blue) in confluent HUVECs. It is filed as cell-based, human. Particulars: 30 µM, 16 h. The procedure: Figure 2 Cdk5 is expressed in HUVECs and HMEC-1 cells, and the compounds are not cytotoxic to endothelial cells at concentrations used in functional assays. A: Cdk5 protein expression in endothelial cells in comparison to human cortex. Cdk5 protein amount was analyzed by Western blot in samples of human cortex (HC), confluent HUVECs (HU) and HMEC-1 (HM). β-actin served as a loading control and for normalization of protein amount. Relative quantification (left panel) and one representative image (right panel) of three individual blots are shown. Note the much lower protein loading in the HC sample in the right panel. (n = 3, mean ± SEM, p>0.05, One Way ANOVA, Dunnett). B: Confluent HUVECs were treated for 16 h with 10 or 30 µM of the indicated compounds or left untreated as control. After addition of CellTiter-BlueTM Reagent, cells were incubated for 4 h and fluorescence was measured at 560 nm (n = 3, mean ± SEM, * p<0.05, One Way ANOVA, Dunnett).
HUVECs were seeded in 96-well plates. After reaching confluency, the cells were treated for 16 h with the indicated compounds or left untreated as control. After addition of CellTiter-Blue^TM Reagent (Promega Corporation, Madison, WI, USA), cells were incubated for additional 4 h and fluorescence was measured at 560 nm in a plate-reading photometer (SpectraFluor Plus; Tecan, Crailsheim, Germany).
For orientation: Alamar Blue is a resazurin reagent that responds to reducing activity.

Data set [3] relates to endothelial cells. Also noted: method as in PMID 21487803. Particulars: cited from earlier work.
Data set [4] concerns endothelial cells. Also noted: method as in PMID 20826806. Particulars: 10 µM; cited from earlier work.

Consider `CC(C)c1n[nH]c2c(NCc3ccccc3N)nc(NC3CCCCC3N)nc12` (centres unmarked) [LGR 1430, 7-(2-Aminobenzyl)amino-5-[(2-E/Z-aminocyclohexyl)amino]-3-isopropyl-1(2)H-pyrazolo-[4,3-d]pyrimidine], for which, in the data set with HMEC-1 cells (Homo sapiens), the IC50 came to 6.16 µM. For the same molecule, the “effect on migration (in words)” value in the data set with HUVECs [1] (30 µM, data not shown) is on record as “no detectable effect”.

As for `CC(C)c1n[nH]c2c(NCc3ccccc3)nc(NC[C@@H](C)O)nc12` [LGR 1667, 7-Benzylamino-5(R)-[(2-hydroxypropyl)amino]-3-isopropyl-1(2)H-pyrazolo[4,3-d]pyrimidine], in the data set on HMEC-1 cells (Homo sapiens), the IC50 was 9.54 µM.

As to `CC(C)c1n[nH]c2c(NCc3ccccc3N)nc(NC[C@H](C)O)nc12` [LGR 1695, 7-(2-Aminobenzyl)amino-5(S)-[(2-hydroxypropyl)amino]-3-isopropyl-1(2)H–pyrazolo[4,3-d]pyrimidine], the “cell viability in comparison to control” value with HUVECs [2] was “weak but significant decrease of viability”. Further, in the data set with HMEC-1 cells (Homo sapiens), the IC50 was found to be 10.2 µM.

Consider `CC(C)n1cnc2c(NCc3ccccc3N)nc(NC[C@@H](C)O)nc21` [LGR 1730], for which the “cell viability in comparison to control” value in the data set on HUVECs [2] was “weak but significant decrease of viability”. In addition, the figures for the IC50 in the data set with HMEC-1 cells and in the data set with HMEC-1 cells (Homo sapiens) were 18.2 µM and ~20 µM, respectively. In addition, the “effect on endothelial cell migration (in words)” value in the data set with HUVECs [1] (10 µM, 16 h, HUVECs) was “no significant impact”.

`CC[C@H](CO)Nc1nc(NCc2ccccc2)c2ncn(C(C)C)c2n1` [roscovitine, (R)-roscovitine]: in the data set on endothelial cells [3], the “concentration at which proliferation only started to be reduced” value is reported as 30 µM. In addition, the reduction of migration in the data set on endothelial cells [4] is on record as 20%.
